Tests used:
[1] = molecular target: ER (Homo sapiens (Human), UniProt P03372); assay: In-cell western blot analysis of relative ER percentage (Compounds B1-B278); type: cell-based; settings: ER degradation, 16 hours, read-out: ICW DC50
In short: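 In-cell western: after 16 h compound exposure (0.5% DMSO final), fixed and permeabilized cells are probed with anti-ER plus anti-GAPDH and near-infrared secondaries. Relative ER percentage compares treated wells against untreated and DMSO wells taken as 100%; seeding 40,000 or 10,000 cells/well.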

[2] = Cell growth assay (WST-8) (Compounds B1-B278); type: cell-based; settings: 96 h; T47D cell line; WST-8, 4 days; read-out: Cell Growth Inhibition in T47D cell line IC50
In short: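 Read-out is WST-8 absorbance at 450 nm (2.5 h, 37° C) as a fraction of vehicle control, from three separate repeats. Compound exposure lasted 4 days, starting one day after plating 1500 cells/well.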

ER, sequence (P03372 whole entry): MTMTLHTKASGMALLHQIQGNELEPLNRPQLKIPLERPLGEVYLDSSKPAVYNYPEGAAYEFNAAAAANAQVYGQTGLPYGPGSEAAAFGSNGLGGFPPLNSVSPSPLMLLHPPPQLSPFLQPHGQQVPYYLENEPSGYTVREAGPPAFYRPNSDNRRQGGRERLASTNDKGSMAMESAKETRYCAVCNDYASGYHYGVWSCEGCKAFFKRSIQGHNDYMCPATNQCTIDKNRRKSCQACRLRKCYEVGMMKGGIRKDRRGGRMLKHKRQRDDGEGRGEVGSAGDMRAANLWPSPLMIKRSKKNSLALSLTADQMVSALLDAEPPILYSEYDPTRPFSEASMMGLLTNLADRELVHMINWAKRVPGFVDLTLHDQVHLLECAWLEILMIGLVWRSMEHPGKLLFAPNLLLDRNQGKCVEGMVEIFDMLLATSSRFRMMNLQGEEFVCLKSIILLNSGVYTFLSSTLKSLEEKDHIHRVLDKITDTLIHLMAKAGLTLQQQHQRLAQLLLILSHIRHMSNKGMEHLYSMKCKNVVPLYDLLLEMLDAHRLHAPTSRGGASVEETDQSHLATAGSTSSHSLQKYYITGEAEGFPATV

Row | SMILES | DC50 [1] [nM] | IC50 [2] [nM]
1 | C[C@@H]1Cc2c([nH]c3ccccc23)[C@@H](c2cnc(N3CCC4(CC3)CC(CN3CCN5c6ccc7c(c6OC[C@H]5C3)CN(C3CCC(=O)NC3=O)C7=O)C4)nc2)N1CC(F)F (stereo partly drawn) [Compound B181, 3-((R)-7-((7-(5-((1R,3R)-2-(2,2-difluoroethyl)-3-methyl-2,3,4,9-tetrahydro-1H-pyrido[3,4-b]indol-1-yl)pyrimidin-2-yl)-7-azaspiro[3.5]nonan-2-yl)methyl)-1-oxo-1,3,5,5a,6,7,8,9-octahydro-2H-pyrazino[1′,2′:4,5][1,4]oxazino[2,3-e]isoindol-2-yl)piperidine-2,6-dione] | < 10 | < 1
2 | C[C@@H]1Cc2c([nH]c3ccccc23)[C@@H](c2cnc(N3CC[C@H](CCN4CCN5c6cc7c(cc6OC[C@@H]5C4)C(=O)N(C4CCC(=O)NC4=O)C7)C3)nc2)N1CC(F)F (stereo partly drawn) [Compound B122, 3-((S)-3-(2-((S)-1-(5-((1R,3R)-2-(2,2-difluoroethyl)-3-methyl-2,3,4,9-tetrahydro-1H-pyrido[3,4-b]indol-1-yl)pyrimidin-2-yl)pyrrolidin-3-yl)ethyl)-8-oxo-1,2,3,4,4a,5,8,10-octahydro-9H-pyrazino[1′,2′:4,5][1,4]oxazino[2,3-f]isoindol-9-yl)piperidine-2,6-dione] | 10 to 100 | 1 to 10
3 | C[C@@H]1Cc2c([nH]c3ccccc23)[C@@H](c2cnc(N3CCC4(CC3)CC(CN3CCN5c6ccc7c(c6N(C)C[C@@H]5C3)CN(C3CCC(=O)NC3=O)C7=O)C4)nc2)N1CC(F)F (stereo partly drawn) [Compound B126, 3-((S)-7-((7-(5-((1R,3R)-2-(2,2-difluoroethyl)-3-methyl-2,3,4,9-tetrahydro-1H-pyrido[3,4-b]indol-1-yl)pyrimidin-2-yl)-7-azaspiro[3.5]nonan-2-yl)methyl)-4-methyl-1-oxo-3,4,5,5a,6,7,8,9-octahydropyrazino[1,2-a]pyrrolo[3,4-f]quinoxalin-2(1H)-yl)piperidine-2,6-dione] | 10 to 100 | > 10
4 | C[C@@H]1Cc2c([nH]c3ccccc23)[C@@H](c2cnc(N3CC4(CCC(CN5CCN6c7ccc8c(c7N(C)C[C@@H]6C5)CN(C5CCC(=O)NC5=O)C8=O)CC4)C3)nc2)N1CC(F)F (stereo partly drawn) [Compound B125, 3-((S)-7-((2-(5-((1R,3R)-2-(2,2-difluoroethyl)-3-methyl-2,3,4,9-tetrahydro-1H-pyrido[3,4-b]indol-1-yl)pyrimidin-2-yl)-2-azaspiro[3.5]nonan-7-yl)methyl)-4-methyl-1-oxo-3,4,5,5a,6,7,8,9-octahydropyrazino[1,2-a]pyrrolo[3,4-f]quinoxalin-2(1H)-yl)piperidine-2,6-dione] | 10 to 100 | > 10
5 | C[C@@H]1Cc2c([nH]c3ccccc23)[C@@H](c2c(F)cc(N3CCN(C(=O)CN4CCN5c6ccc7c(c6OC[C@H]5C4)CN(C4CCC(=O)NC4=O)C7=O)CC3)cc2F)N1CC(F)F (stereo partly drawn) [Compound B151, 3-((R)-7-(2-(4-(4-((1R,3R)-2-(2,2-difluoroethyl)-3-methyl-2,3,4,9-tetrahydro-1H-pyrido[3,4-b]indol-1-yl)-3,5-difluorophenyl)piperazin-1-yl)-2-oxoethyl)-1-oxo-1,3,5,5a,6,7,8,9-octahydro-2H-pyrazino[1′,2′:4,5][1,4]oxazino[2,3-e]isoindol-2-yl)piperidine-2,6-dione] | > 100 | < 1
6 | C[C@@H]1Cc2c([nH]c3ccccc23)[C@@H](c2cnc(N3CC4(CCC(CN5CCN6c7ccc8c(c7OC[C@H]6C5)CN(C5CCC(=O)NC5=O)C8=O)CC4)C3)nc2)N1CC(C)(C)F (stereo partly drawn) [Compound B182, 3-((R)-7-((2-(5-((1R,3R)-2-(2-fluoro-2-methylpropyl)-3-methyl-2,3,4,9-tetrahydro-1H-pyrido[3,4-b]indol-1-yl)pyrimidin-2-yl)-2-azaspiro[3.5]nonan-7-yl)methyl)-1-oxo-1,3,5,5a,6,7,8,9-octahydro-2H-pyrazino[1′,2′:4,5][1,4]oxazino[2,3-e]isoindol-2-yl)piperidine-2,6-dione] | < 10 | 1 to 10
7 | C[C@@H]1Cc2c([nH]c3ccccc23)[C@@H](c2cnc(N3CCC4(CCC(N5CCN6c7cc8c(cc7OC[C@@H]6C5)C(=O)N(C5CCC(=O)NC5=O)C8)CC4)CC3)nc2)N1CC(F)F (stereo partly drawn) [Compound B138, 3-((S)-3-(3-(5-((1R,3R)-2-(2,2-difluoroethyl)-3-methyl-2,3,4,9-tetrahydro-1H-pyrido[3,4-b]indol-1-yl)pyrimidin-2-yl)-3-azaspiro[5.5]undecan-9-yl)-8-oxo-1,2,3,4,4a,5,8,10-octahydro-9H-pyrazino[1′,2′:4,5][1,4]oxazino[2,3-f]isoindol-9-yl)piperidine-2,6-dione] | 10 to 100 | 1 to 10

The next lines start with results.

Row | DC50 [1] [nM] | SMILES | IC50 [2] [nM]
8 | > 100 | C[C@@H]1Cc2c([nH]c3ccccc23)[C@@H](c2cnc(N3CCC4(CCC(CN5CCN6c7ccc8c(c7OC[C@H]6C5)CN(C5CCC(=O)NC5=O)C8=O)CC4)CC3)nc2)N1CC(F)F (stereo partly drawn) [Compound B161, 3-((R)-7-((3-(5-((1R,3R)-2-(2,2-difluoroethyl)-3-methyl-2,3,4,9-tetrahydro-1H-pyrido[3,4-b]indol-1-yl)pyrimidin-2-yl)-3-azaspiro[5.5]undecan-9-yl)methyl)-1-oxo-1,3,5,5a,6,7,8,9-octahydro-2H-pyrazino[1′,2′:4,5][1,4]oxazino[2,3-e]isoindol-2-yl)piperidine-2,6-dione] | > 10
9 | 10 to 100 | C[C@@H]1Cc2c([nH]c3ccccc23)[C@@H](c2cnc(N3CCC4(CC3)CC(N3CCN5c6ccc7c(c6OC[C@H]5C3)CN(C3CCC(=O)NC3=O)C7=O)CO4)nc2)N1CC(C)(C)F (stereo partly drawn) [Compound B165, 3-((5aR)-7-(8-(5-((1R,3R)-2-(2-fluoro-2-methylpropyl)-3-methyl-2,3,4,9-tetrahydro-1H-pyrido[3,4-b]indol-1-yl)pyrimidin-2-yl)-1-oxa-8-azaspiro[4.5]decan-3-yl)-1-oxo-1,3,5,5a,6,7,8,9-octahydro-2H-pyrazino[1′,2′:4,5][1,4]oxazino[2,3-e]isoindol-2-yl)piperidine-2,6-dione] | 1 to 10
10 | > 100 | C[C@@H]1CC2c3ccccc3NC2[C@@H](c2c(F)cc(N3CCC4(CC3)CC(CN3CCN5c6cc7c(cc6OC[C@H]5C3)C(=O)N(C3CCC(=O)NC3=O)C7)CO4)cc2F)N1CC(F)(F)CO (stereo partly drawn) [Compound B267, 3-((4aR)-3-((8-(4-((1R,3R)-2-(2,2-difluoro-3-hydroxypropyl)-3-methyl-2,3,4,4a,9,9a-hexahydro-1H-pyrido[3,4-b]indol-1-yl)-3,5-difluorophenyl)-1-oxa-8-azaspiro[4.5]decan-3-yl)methyl)-8-oxo-1,2,3,4,4a,5,8,10-octahydro-9H-pyrazino[1′,2′:4,5][1,4]oxazino[2,3-f]isoindol-9-yl)piperidine-2,6-dione] | > 10
11 | < 10 | C[C@@H]1Cc2c([nH]c3ccccc23)[C@@H](c2cnc(N3CCC4(CC3)CN(C(=O)CN3CCN5c6ccc7c(c6OC[C@H]5C3)CN(C3CCC(=O)NC3=O)C7=O)C4)nc2)N1CC(F)F (stereo partly drawn) [Compound B176, 3-((R)-7-(2-(7-(5-((1R,3R)-2-(2,2-difluoroethyl)-3-methyl-2,3,4,9-tetrahydro-1H-pyrido[3,4-b]indol-1-yl)pyrimidin-2-yl)-2,7-diazaspiro[3.5]nonan-2-yl)-2-oxoethyl)-1-oxo-1,3,5,5a,6,7,8,9-octahydro-2H-pyrazino[1′,2′:4,5][1,4]oxazino[2,3-e]isoindol-2-yl)piperidine-2,6-dione] | 1 to 10
12 | 10 to 100 | C[C@@H]1Cc2c([nH]c3ccccc23)[C@@H](c2cnc(N3CCC4(CC3)OCC(CN3CCN5c6ccc7c(c6OC[C@H]5C3)CN([C@H]3CCC(=O)NC3=O)C7=O)CO4)nc2)N1CC(F)(F)CO [Compound B272, (S)-3-((R)-7-((9-(5-((1R,3R)-2-(2,2-difluoro-3-hydroxypropyl)-3-methyl-2,3,4,9-tetrahydro-1H-pyrido[3,4-b]indol-1-yl)pyrimidin-2-yl)-1,5-dioxa-9-azaspiro[5.5]undecan-3-yl)methyl)-1-oxo-1,3,5,5a,6,7,8,9-octahydro-2H-pyrazino[1′,2′:4,5][1,4]oxazino[2,3-e]isoindol-2-yl)piperidine-2,6-dione] | < 1
13 | 10 to 100 | COc1cc(N2CCC3(CC2)OCC(CN2CCN4c5ccc6c(c5OC[C@@H]4C2)CN([C@@H]2CCC(=O)NC2=O)C6=O)CO3)ccc1[C@@H]1c2[nH]c3ccccc3c2C[C@@H](C)N1CC(F)F [Compound B271, (R)-3-((S)-7-((9-(4-((1R,3R)-2-(2,2-difluoroethyl)-3-methyl-2,3,4,9-tetrahydro-1H-pyrido[3,4-b]indol-1-yl)-3-methoxyphenyl)-1,5-dioxa-9-azaspiro[5.5]undecan-3-yl)methyl)-1-oxo-1,3,5,5a,6,7,8,9-octahydro-2H-pyrazino[1′,2′:4,5][1,4]oxazino[2,3-e]isoindol-2-yl)piperidine-2,6-dione] | < 1
14 | 10 to 100 | C[C@@H]1Cc2c([nH]c3ccccc23)[C@@H](c2cnc(N3CCC4(CC3)CC(CN3CCN5c6ccc7c(c6OC[C@H]5C3)CN(C3CCC(=O)NC3=O)C7=O)C4)nc2)N1CC(F)(F)CO (stereo partly drawn) [Compound B153, 3-((R)-7-((7-(5-((1R,3R)-2-(2,2-difluoro-3-hydroxypropyl)-3-methyl-2,3,4,9-tetrahydro-1H-pyrido[3,4-b]indol-1-yl)pyrimidin-2-yl)-7-azaspiro[3.5]nonan-2-yl)methyl)-1-oxo-1,3,5,5a,6,7,8,9-octahydro-2H-pyrazino[1′,2′:4,5][1,4]oxazino[2,3-e]isoindol-2-yl)piperidine-2,6-dione] | 1 to 10

— patent US20260007681A1, “INDOLE DERIVATIVES AS ESTROGEN RECEPTOR DEGRADERS” (REGENTS OF THE UNIVERSITY OF MICHIGAN, priority 2022, published 2026)
